Source: patent publication US5663197A, “2-(1-hydroxyethyl)-5-hydroxynaphtho[2,3-b]furan-4,9-dione and antitumor agents comprising this compound” (priority 1992, dated 1997)
Converted amounts (≈) assume the structure as drawn.

Tests used:
[1] = tested on: Human uninary bladder carcinoma T24 cells; assay: In vitro antitumor test (trypan blue exclusion viable cell count), T24; assay type: cell-based
Description: (§1) An appropriate amount of NFD was dissolved in DMSO to give a 1.0 mg/ml stock solution, which was diluted as necessary before use.
(§2) The following cells in the late logarithmic phase were harvested after treatment with trypsin (containing 0.25% trypsin and 0.02% EDTA; 37° C., 3 min) and used in the test: human lung adenocarcinoma cell lines A-549, VMRC-LCD and SK-LU-1, human lung squamous cell carcinoma Calu-1 cells, human colon adenocarcinoma WiDr cells, human prostate cancer LNCaP cells, human vaginal squamous cell carcinoma A-431 cells, human cervical carcinoma HeLa cells, human cholangiocarcinoma HuCC-T1 cells, mouse skin cancer melanoma B16 (M4) cells, human pancreatic carcinoma ASPC-1 cells, human neuroblastoma IMR-132 cells, human lung small cell carcinoma SCCH-194 cells, human uninary bladder carcinoma T24 cells, human renal cell carcinoma […] cells, human gastric cancer NUGC-2 cells, human thyroid carcinoma 8305C cells, human hepatoma HUH-7 cells, human ovarian carcinoma TYK-nu cells and human chorio carcinoma BeWo cells. […] These cells were plated onto a 96-well microplate at a density of 5-10×10^3 cells/cm^2 using DMEM or RPMI-1640 medium containing 10% fetal bovine serum and cultured for 24 hours in a conventional manner, after which a pre-determined amount of NFD dissolved in DMSO was added to each well. […]

[2] = tested on: Human hepatoma HuH-7 cells; assay: In vitro antitumor test (trypan blue exclusion viable cell count), HuH-7; assay type: cell-based
Description: as §1, §2

[3] = tested on: Normal human N6KA fibroblasts; assay: In vitro growth test on normal cells, N6KA fibroblasts; assay type: cell-based
Description: as §1, §2

[4] = tested on: Human lung small cell carcinoma SCCH-194 cells; assay: In vitro antitumor test (trypan blue exclusion viable cell count), SCCH-194; assay type: cell-based
Description: as §1, §2

[5] = tested on: Human colon adenocarcinoma WiDr cells; assay: In vitro antitumor test (trypan blue exclusion viable cell count), WiDr; assay type: cell-based
Description: as §1
as §2, with “cells. Suspension cultures of human breast cancer MRK-nu-1 cells, human malignant B-cell lymphoma cells and human chronic myelogenous leukemia K562 cells were used to harvest the cells to be used in the test.” for “cells.”, “well. Cultivation was continued, and the number of viable cells was counted after 24, 48 and 72 hours.” for “well.”
Growth inhibitory action and lethal activity of NFD on various types of malignant tumor cells and normal human cells listed above were evaluated by counting the number of viable cells in each well of the 96-well microplate. […]

[6] = General toxicology in ICR mice; conditions: mouse, in vivo, ICR mice (male)
lung adenomas in mice = assay: Inhibition of two-step carcinogenesis in mouse lungs; assay type: in vivo, mouse (female ICR)
Description: Female ICR mice were used as test animals. Fifteen mice were housed in a cage and provided with the pellet diet and drinking water ad libitum. After one week of preliminary rearing, the six-week-old mice were given in the back a subcutaneous injection of 10 mg/kg body weight of 4-nitroquinoline-N-oxide (4NQO) dissolved in a mixture of olive oil and cholesterol (20:1). From five weeks after initiation, the mice were allowed to orally take 8% glycerol ad libitum as a carcinogenic promoter. The mice which received 4 NQO and 8% glycerol for 25 weeks served as a positive control. On the other hand, the mice in the test group were given ad libitum 8% glycerol containing 0.1 ng/ml of NFD for 25 weeks. Thirty weeks after the onset of the experiment, the mice were killed by cervical dislocation, and the lungs were removed after fixation with formalin under autopsy. Under a stereomicroscope, the adenomas formed in the lung were observed, and the number of adenomas was determined. The numbers were compared between the positive control and NFD-administered groups.

Solubility = assay type: physicochemical
[7] = tested on: carcinogenic promotion (skin papillomas in mice); assay: Inhibition of two-step skin carcinogenesis in mice skin; assay type: in vivo, mouse (female ICR); conditions: DMBA initiator, TPA promoter, 20 weeks; FIG. 28 (NFD 85 nmol), FIG. 29 (lapacoal)
Description: Female ICR mice were used as test animals. Fifteen mice were housed in a cage and kept on a commercial pellet diet and drinking water ad libitum until the end of the experiment. The mice were purchased at their age of six-week-old. Dorsal hair of mice was shaved, and next day, 390 nmol of 7,12-dimethylbenz(a)anthracene (DMBA) in 0.1 ml acetone was applied, as an initiator, on the shaved back. One week later, 1.7 nmol of 12-O-tetradecanoylphorbol-13-acetate (TPA) in 0.1 ml acetone was applied, as a promoter, to the same place twice a week. This procedure was repeated for 20 weeks.
Mice were observed once a week for the number of papillomas larger than 1 mm, and the experimental results were given as the percentage of papilloma-bearing mice in each group and the number of papillomas per mouse.

CC(O)c1cc2c(o1)C(=O)c1cccc(O)c1C2=O (stereo not shown) [NFD, 2-(1-hydroxyethyl)-5-hydroxynaphtho[2,3-b]furan-4,9-dione]
IC50 ([1]; T-24, 72 h, T24, three days exposure, read-out: LD50 (IC50), 50% growth-inhibitory dose): 0.021 µg/mL (≈ 0.0813 µM) | IC (almost complete) ([1]; T-24, FIG. 16, read-out: concentration inhibiting growth almost completely): 0.023 µg/mL | IC50 ([2]; 72 h, HuH-7, three days exposure, read-out: LD50 (IC50), 50% growth-inhibitory dose): 0.0055 µg/mL (≈ 0.0213 µM) | IC (almost complete) ([2]; Huh-7, FIG. 21, read-out: concentration inhibiting growth almost completely): 0.02 µg/mL | adverse effects on growth of normal cells ([3]; FIG. 24, at concentrations which cause necrosis in tumor cells): no adverse effects | IC50 ([3]; Homo sapiens, Fibroblast, 72 h, N6KA normal fibroblasts, three days exposure, read-out: LD50 (IC50), 50% growth-inhibitory dose): 0.084 µg/mL (≈ 0.325 µM) | IC50 ([4]; 72 h, SCCH-194, three days exposure, read-out: LD50 (IC50), 50% growth-inhibitory dose): 0.01 µg/mL (≈ 0.0387 µM) | IC (almost complete) ([4]; FIG. 15, read-out: concentration inhibiting growth almost completely): 0.03 µg/mL | concentration causing necrosis in almost all tumor cells ([5]; FIG. 5): 44.7 to 55.9 ng/mL | IC50 ([5]; Homo sapiens, 72 h, WiDr, three days exposure, read-out: LD50 (IC50), 50% growth-inhibitory dose): 0.011 µg/mL (≈ 0.0426 µM) | IC (almost complete) ([5]; Homo sapiens, WiDr, FIG. 5, read-out: concentration inhibiting growth almost completely): 0.0224 to 0.0335 µg/mL | LD50 ([6]; ip, intraperitoneally): 7.3 mg/kg | LD50 ([6]; po, orally): 8.4 mg/kg | inhibition of adenoma formation in the lung (lung adenomas in mice; 0.1 ng/ml NFD in 8% glycerol, versus positive control): significant inhibition | expression percentage of lung adenomas, lower than that in the positive control group (lung adenomas in mice; 30th week after onset, versus 4NQO + 8% glycerol group): 1/3 | solubility in chloroform (Solubility; chloroform): freely soluble | solubility in dimethylsulfoxide (Solubility; dimethylsulfoxide): freely soluble | solubility in water (Solubility; water): slightly soluble | inhibitory effect on carcinogenic promotion in skin [7]: inhibitory effect
